# Test results from US20180369203A1, “METHODS OF TREATING CANCER BY ADMINISTERING A MEK INHIBITOR IN COMBINATION WITH A PROTEASOME INHIBITOR” (The Jackson Laboratory, priority 2015, published 2018).
# Tests used:
# amyloid oligomers (AOs) [1] = assay: Amyloid oligomer ELISA (A11) in human tumor, immortalized and primary cells; type: cell-based; details: 20 nM AZD6244, 100 nM Bortezomib, or both, 24 hr
# Procedure: (§1) FIGS. 5A-Y show MEK and proteasome inhibition provoke protein aggregation and amyloidogenesis. (A-B) WM115 cells treated with 20 nM AZD6244, 100 nM Bortezomib, or both for 24 hr were stained with Lys48-specific ubiquitin antibodies. Arrowheads mark ubiquitin-positive aggregates. Scale bar: 10 μm. Amounts of aggregates per cell were quantitated using ImageJ (median, n≥100, ANOVA). (C-F) Following transfection with polyQ79 plasmids alone or with both polyQ79 and HSF1^S326D plasmids for one day, HEK293T cells were treated with inhibitors as described in (A-B). Cells were either analyzed for aggregate size or stained with 10 μM ThT. (G) Treated tumor cell lines were stained with 10 μM ThT. Geometric means were used to calculate fold changes in ThT fluorescence intensity and the log 2(FC) values were presented as a heat map. (H) HEK293T cells were transfected with LacZ or polyQ79 plasmid. Following treatments, AOs were quantitated by ELISA using A11 antibodies (mean±SD, n=3, ANOVA). (I) Intrinsic AOs were detected in human tumor cell lines (mean±SD, n=3, ANOVA). […] Amyloids were quantitated by ELISA (mean±SD, n=3, Student's t-test). […] AF formation was monitored by ThT binding (mean±SD, n=3, ANOVA). […] Amyloids were quantitated (mean±SD, n=3, Student's t-test). […] Viable cells were quantitated by CellTiter® blue (mean±SD, n=6, Student's t-test). […] Viable cells were quantitated (mean±SD, n=6, ANOVA). Relative changes in viable cells after treatment were calculated by normalizing the values of AZD6244-treated cells against the values of DMSO-treated cells at each time point. (U)-(W) Following treatments with 20 nM AZD6244, 100 nM Bortezomib, or both for 24 hr, AOs were quantitated in primary MEFs and human cells (mean±SD, n=3, ANOVA). (X and Y) Cells were treated with 50 μM Q-VD-OPh overnight and AOs were quantitated (mean±SD, n=3, Student's t-test). […]
# To quantitate soluble amyloid prefibrillar oligomers, 20 μg soluble cellular proteins diluted in PBS were incubated for each well in a 96-well ELISA plate at 4° C. overnight followed by blocking (5% non-fat milk in PBS-T) at RT for 1 hr. […]
# polyQ79-expressing cells = assay: ThT and CR staining of polyQ79-expressing cells (flow cytometry); type: cell-based; details: HEK293T; 20 nM AZD6244, 100 nM Bortezomib, or both
# Procedure: as §1, with “ANOVA).” for “ANOVA). Relative changes in viable cells after treatment were calculated by normalizing the values of AZD6244-treated cells against the values of DMSO-treated cells at each time point. (U)-(W) Following treatments with 20 nM AZD6244, 100 nM Bortezomib, or both for 24 hr, AOs were quantitated in primary MEFs and human cells (mean±SD, n=3, ANOVA). (X and Y) Cells were treated with 50 μM Q-VD-OPh overnight and AOs were quantitated (mean±SD, n=3, Student's t-test).”
# amyloid oligomers (AOs) [2] = assay: Amyloid oligomer ELISA (A11) in murine cells (primary MEFs, NIH3T3); type: cell-based, mouse; details: different concentrations of Bortezomib, 24 hrs
# Procedure: as §1, with “(H) HEK293T cells were transfected with LacZ or polyQ79 plasmid.” left out, “ANOVA).” for “ANOVA). Relative changes in viable cells after treatment were calculated by normalizing the values of AZD6244-treated cells against the values of DMSO-treated cells at each time point. (U)-(W) Following treatments with 20 nM AZD6244, 100 nM Bortezomib, or both for 24 hr, AOs were quantitated in primary MEFs and human cells (mean±SD, n=3, ANOVA). (X and Y) Cells were treated with 50 μM Q-VD-OPh overnight and AOs were quantitated (mean±SD, n=3, Student's t-test).”
# This figure is related to FIG. 5. […] (C) Quantitation of protein aggregate size. […]
# WM115 cells = assay: Lys48 ubiquitin immunostaining of aggregates in melanoma cells; type: cell-based, human; details: 20 nM AZD6244, 100 nM Bortezomib, or both, 24 hr
# Procedure: as §1, with “ANOVA).” for “ANOVA). Relative changes in viable cells after treatment were calculated by normalizing the values of AZD6244-treated cells against the values of DMSO-treated cells at each time point. (U)-(W) Following treatments with 20 nM AZD6244, 100 nM Bortezomib, or both for 24 hr, AOs were quantitated in primary MEFs and human cells (mean±SD, n=3, ANOVA). (X and Y) Cells were treated with 50 μM Q-VD-OPh overnight and AOs were quantitated (mean±SD, n=3, Student's t-test).”
structure (smiles),measurement,setting,value
"CC(C)C[C@H](NC(=O)[C@H](Cc1ccccc1)NC(=O)c1cnccn1)B(O)O [Bortezomib, bortezomib]",AO levels in MCF10A cells,amyloid oligomers (AOs) [1]; immortalized human mammary epithelial cells,slight induction
same,AO levels in PHMC,amyloid oligomers (AOs) [1]; primary human mammary epithelial cells,no induction
same,AO levels in MCF7 cells,amyloid oligomers (AOs) [1]; tumorigenic mammary epithelial cells,marked AO induction
same,ThT and CR staining of polyQ79-expressing cells,polyQ79-expressing cells,further intensified
same,endogenous amyloid oligomers in NIH3T3 cells,amyloid oligomers (AOs) [2],capable of inducing amyloidogenesis
same,ubiquitin-containing aggregates (punctate foci),WM115 cells,bright fluorescent punctate foci emerged
